Assay results as given in US9908896B2, “P38 and JNK MAPK inhibitors for the treatment and prophylaxis of degenerative diseases of the nervous system” (ALLINKY BIOPHARMA, priority 2014, dated 2018).
“And” between values parts separate entries of the source, which are not always exact repeats. Identical values can stand only once. Like-named read-outs stand apart in the source and are kept apart here.

Legend:
[1] = tested on: recombinant activated JNK; assay: in vitro kinase assay JNK (ADP-Glo); assay type: biochemical; conditions: 100 μM ATP
Experimental: (§1) Purified recombinant activated JNK (10 nM) (ProQinase) was preincubated 10 minutes at 30° C. with the compound of interest at concentrations between 1 and 100 μM in duplicate in a final volume of 30 μl of kinase buffer (Hepes 60 mM pH 7.5, MgCl2 3 mM, MnCl2 3 mM, sodium orthovanadate 3 μM, DTT 1.2 mM). After preincubation, peptide substrate (SignalChem #P03-58) and ATP were added to a final concentration of 10 μM and 100 μM respectively, and then incubated 40 minutes at 30° C. for the kinase reaction. Phosphorylation was analyzed with ADP-Glo™ (Promega #V9101) and emitted luminescence was measured with BMG Fluostar microplate reader.

[2] = biological target: T1, recombinant activated p38alpha (Homo sapiens, UniProt Q16539); assay: in vitro kinase assay p38 (ADP-Glo); assay type: biochemical; conditions: 100 μM ATP
T1 construct: purchased ProQinase
Experimental: as §1, with “p38alpha” for “JNK”, “nM)(ProQinase)” for “nM) (ProQinase)”, “analysed” for “analyzed”

[3] = tested on: Aβ25-35-induced Aβ1-42 accumulation in the rat hippocampus; assay: Aβ1-42 content in hippocampus by ELISA after i.c.v. Aβ25-35 injection; assay type: in vivo, male Sprague Dawley rats; conditions: 10 mg/kg i.v. once a day; after Aβ25-35 injection; vs Sc.Aβ/Veh group
Experimental: The compound efficacy was evaluated 7 days after the peptide administration, on: • the attenuation of the Aβ25-35-induced learning deficits (recognition long-term memory: novel object recognition); • the attenuation of the Aβ25-35-induced Aβ^1-42 accumulation in the rat hippocampus.
One administration procedure was examined: the compound 1 (10 mg/kg) administered intraveinously (i.v.) once a day during 9 days.
On day 10, all animals were sacrificed, the frontal cortex and hippocampi dissected out. One hippocampus was used for the ELISA analyses of Aβ1-42 content.
Samples were prepared from one hippocampus tissues of each rat per group and homogenized in an extraction buffer specific to the commercial ELISA assay kits.
After thawing, the hippocampus were homogenized in 50 mM Tris-150 mM NaCl buffer, pH 7.5, and sonicated for 20 s. After centrifugation (16,100 g for 15 min, 4° C.), supernatants were used for Aβ1-42 ELISA assay according to the manufacturer instructions. Absorbance was read at 450 nm and sample concentration was calculated using the standard curve. Results will be expressed in pg of Aβ1-42 per mg of tissue. […]
All values were expressed as mean±S.E.M. Statistical analyses were performed on the different conditions using one-way ANOVA (F value), followed by the Dunnett's post-hoc multiple comparison test. p<0.05 was considered as statistically significant.

[4] = Single dose i.p. and i.v. blood brain barrier permeability study, plasma and brain concentration (LC-MS/MS); assay type: in vivo, male Sprague Dawley rat; conditions: for concentration at 2 h: male, Sprague Dawley, 10 mg/kg
Experimental: The objective of these tests was to determine the plasma and brain concentration of the compound 1 in male Sprague Dawley rat after single intraperioneal (i.p.) and intravenous (i.v.) administration.
The compound 1 was administered intravenously (i.v.) through tail vein and intraperitoneally (i.p.) in abdominal cavity. After dosing of each animal, the time was documented.
Formulation vehicle: 20 Vol.-% Cremophore, 10 Vol.-% ethanol, 70 Vol.-% normal saline
Bioanalysis was performed using fit-for-purpose LC-MS/MS method for the quantification of test compounds in plasma samples and brain homogenate. The method was validated for calibration curve consisted of nine non-zero calibration standards along with a double blank and zero standard samples. Study samples were analysed along with two sets of quality control samples (6 QC samples; low, medium and high QC sample).
Sample Process: Blood samples were placed on ice prior to centrifugation and centrifuged within 15 min at 5000 rpm for 10 min at 4° C.
Immediately after blood withdrawal, in situ brain perfusion was performed using chilled saline. The chest of the rat was exposed, the abdominal aorta was clamped and both jugular veins were cut. Intra-cardial perfusion was performed through an insertion in the left ventricle. Perfusion of each rat was followed by exanguination for brain collection. The skin over the cranium was incised and deflected. The head was flexed and a cut was made through the muscles and the spinal cord at the junction of the foreman magnum and atlas vertebra. A circumferential incision was carefully made in the cranium using a bone cutter. The roof of the cranium was lifted off to expose the meninges and brain. The meninges were removed carefully. Then holding the head with the nose pointing upward, the anterior part of the brain was lifted to separate the brain. Separated brain was immediately weighed and frozen at −80±10° C. until homogenization.
Brain samples were thawed on ice. An appropriate volume of ice cold homogenizing media (Normal Saline) was added. Brain samples were homogenized on ice with the Polytron® homogenizer and volume was adjusted with homogenizing media to achieve 1 g of brain per 5 ml of homogenate. After homogenization, the brain homogenate were immediately frozen at −80° C. until analysis.

[5] = tested on: TNF-α secretion by a human monocytic cell line, THP-1; assay: Inhibition of TNF-α secretion by LPS-stimulated THP-1 cells (ELISA); assay type: cell-based; conditions: LPS-stimulated THP-1, TNF-α
Experimental: Thp1-Inhibition of TNF-α Secretion by a Human Monocytic Cell Line, THP-1
THP-1 cells, growing in log phase, were collected by centrifugation and resuspended in RPMI 1640 (Sigma Aldrich), to a final cell concentration of 2×10^6 cells/ml. Cells were plated into 24-well plates (BD Biosciences). Dilutions of compounds in dimethyl sulfoxide (DMSO) were added to the culture to a final concentration M. The final DMSO concentration was 0.5%. The cells […] suspensions were preincubated with compounds for 1 h at 37° C. in a 5% CO2 humidified atmosphere before the addition of LPS (Sigma Aldrich, L2654) to a g/ml. After that, cells were incubated for 3 h followed final concentration of […] by centrifugation to pellet cells. Cell supernatants were stored at 4° C. until human analysis for TNF-α content. TNF-α levels were determined by ELISA (TNF Biotrak, GE Healthcare) following the manufacturer's directions. The percentage inhibition was calculated for each compound concentration tested, and the IC50 was calculated for each compound.

T1 sequence (Q16539 whole entry): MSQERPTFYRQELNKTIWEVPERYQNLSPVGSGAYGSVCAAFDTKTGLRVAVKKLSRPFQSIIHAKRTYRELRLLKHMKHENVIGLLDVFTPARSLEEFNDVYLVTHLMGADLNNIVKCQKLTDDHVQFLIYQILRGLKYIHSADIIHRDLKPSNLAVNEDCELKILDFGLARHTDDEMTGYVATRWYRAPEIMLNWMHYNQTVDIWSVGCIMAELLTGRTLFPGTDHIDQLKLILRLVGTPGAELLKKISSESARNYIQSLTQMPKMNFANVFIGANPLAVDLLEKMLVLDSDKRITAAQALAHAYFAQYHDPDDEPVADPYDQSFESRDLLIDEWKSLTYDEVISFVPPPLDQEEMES

% of inhibition at 1 μM, JNK ([1]; 1 μM compound): 49%
% of inhibition at 10 μM, JNK ([1]; 10 μM compound): 98%
inhibition at 1 µM ([2]; 1 μM compound): 37%
inhibition at 10 µM ([2]; 10 μM compound): 99%
Concentration in rat brain homogenate i.p. at 2 h, individual rats ([4]; 10 mg/kg i.p., rats R1, R2, R3): 31.30 ng/g and 44.55 ng/g
Concentration in rat plasma i.p. at 2 h, individual rats ([4]; 10 mg/kg i.p., rats R1, R2, R3): 63.64 ng/mL and 87.75 ng/mL
Concentration in rat brain homogenate i.v. at 2 h, individual rats ([4]; 10 mg/kg i.v., rats R1, R2, R3): 394.80 ng/g and 439.45 ng/g
Concentration in rat plasma i.v. at 2 h, individual rats ([4]; 10 mg/kg i.v., rats R1, R2, R3): 293.38 ng/mL and 156.26 ng/mL
concentration at 2 h ([4]; rat, brain homogenate, intraperitoneal, 10 mg/kg i.p., mean of 3 rats, read-out: Concentration in rat brain homogenate i.p. at 2 h, Mean): 41.6 ng/g
concentration at 2 h ([4]; rat, brain homogenate, intraperitoneal, 10 mg/kg i.p., rats R1, R2, R3, read-out: Concentration in rat brain homogenate i.p. at 2 h, individual rats): 49.1 ng/g
concentration at 2 h ([4]; rat, brain homogenate, intravenous, 10 mg/kg i.v., mean of 3 rats, read-out: Concentration in rat brain homogenate i.v. at 2 h, Mean): 386 ng/g
concentration at 2 h ([4]; rat, brain homogenate, intravenous, 10 mg/kg i.v., rats R1, R2, R3, read-out: Concentration in rat brain homogenate i.v. at 2 h, individual rats): 323 ng/g
concentration at 2 h ([4]; rat, plasma, intraperitoneal, 10 mg/kg i.p., mean of 3 rats, read-out: Concentration in rat plasma i.p. at 2 h, Mean): 91.5 ng/mL
concentration at 2 h ([4]; rat, plasma, intraperitoneal, 10 mg/kg i.p., rats R1, R2, R3, read-out: Concentration in rat plasma i.p. at 2 h, individual rats): 123 ng/mL
concentration at 2 h ([4]; rat, plasma, intravenous, 10 mg/kg i.v., mean of 3 rats, read-out: Concentration in rat plasma i.v. at 2 h, Mean): 204 ng/mL
concentration at 2 h ([4]; rat, plasma, intravenous, 10 mg/kg i.v., rats R1, R2, R3, read-out: Concentration in rat plasma i.v. at 2 h, individual rats): 163 ng/mL
blood-brain permeability (in words) ([4]; rat, 10 mg/kg i.v. or i.p., 2 h): excellent blood-brain permeability
SMILES: CCCOc1ccc(Nc2nc3nonc3nc2N2CCC(Oc3ccc(Cl)cc3)CC2)cc1 [Comp 1]
Aβ1-42 level in the hippocampus [3]: decreased the Aβ1-42 level increase
inhibition at 1 µM ([5]; 1 μM compound, read-out: % of inhibition at 1 μM, THP1): 51%
inhibition at 10 µM ([5]; 10 μM compound, read-out: % of inhibition at 10 μM, THP1): 74%
